Earlier results as cited in patent US20040087484A1, “Combination of organic compounds” (priority 2003, published 2004).

System: male rats
Details: used for the treatment of hypertensive disorder in male rats

## CCCCc1nc(Cl)c(CO)n1Cc1ccc(-c2ccccc2-c2nn[nH]n2)cc1 [losartan]
  preservation of sexual function: advantage in preservation of sexual function
